Data from patent publication US11015223B2, “Methods for determining response to a hypomethylating agent” (THE REGENTS OF THE UNIVERSITY OF CALIFORNIA, priority 2013, dated 2021).
“And” between values parts separate entries of the source, which are not always exact repeats. Equal values may be shown once.

Key:
[1] = tested on: MDS patients; experiment: Response to treatment by IWG response criteria revised in 2006 (CR/PR/HI = responders); type: in vivo, human
From the text: A total of 213 MDS patients treated azacitidine or decitabine were included in this study. Samples were obtained from patients treated at the Dana-Farber Cancer Institute (n=42), the MD Anderson Cancer Center (n=104), and as part of the DACO-020 (ADOPT) clinical trial of decitabine (n=67). All samples were collected with patient consent under IRB-approved protocols in accordance with the Declaration of Helsinki. There were no significant differences in baseline patient characteristics by treatment site (Table 1).
Response to treatment was assessed using IWG response criteria revised in 2006. Patients with either a complete response (CR), partial response (PR), or hematologic improvement (HI) were considered as ‘responders’ (R, n=100, 47%). whereas patients described as having ‘no response’, ‘stable disease’, ‘progressive disease’, ‘death’ before response assessment, or ‘not evaluable’ were considered ‘non-responders’ (NR, […], 53%).
Categorical variables were compared using a Fisher exact test, while continuous variables were compared using a Wilcoxon rank-sum test. A Cochran-Mantel-Haenszel (CMH) test was used to test for differences in response rate by mutational status controlling for treatment. Unadjusted and adjusted logistic regression models were used to predict response to therapy. A stepwise algorithm for logistic regression was also utilized to determine a final model; candidate variables considered for inclusion were all mutations, treatment, IPSS classification, age, and sex. The Hosmer and Lemeshow goodness-of-fit test was used to assess model fit for logistic regression models. Overall survival was calculated from the time of treatment to the time of death from any cause or was censored at the date last known alive. Unadjusted and adjusted Cox regression models were constructed for overall survival. A stepwise regression algorithm for Cox regression models was used including the same candidate variables as in the logistic regression modeling. Classification trees were also created using the Rpart package in R version 2.11.1 to classify responders based on mutational status. Cross-validation was used for tree pruning. All p-values reported are two-sided and considered significant at the 0.05 level. No adjustments were made for multiple hypothesis testing.

[2] = tested on: Tet2-null cells; experiment: Competitive murine bone marrow transplant, percent 45.2 chimerism in peripheral blood; type: in vivo
Experimental: (§1) Age-matched Tet2^−/−; Mx-Cre^+ and Tet2^+/+; Mx-Cre^+ donor animals (CD45.2) were treated with pIpC (15 μg/g IP) for three non-consecutive days to induce excision of exon 3 of Tet2. Donor bone marrow was harvested two weeks post-pIpC and mixed in a 1:2 ratio with bone marrow harvested from 45.1 WT donors (B6.SJL-Ptprca Pepcb/BoyJ; Jackson), and was then transplanted into 45.1 recipients for a total of 1 million cells/recipient. Peripheral blood engraftment was assessed by FACS at two weeks post-transplant, at which point recipient mice were divided into treatment groups (n=7 per group) and treated with either 5-azacitidine (aza; 2.5 mg/kg IP; Santa Cruz Biotechnology) or vehicle control on the following schedule: two weeks on, two weeks off. Peripheral blood chimerism and CBC were assessed following each round of treatment. Percent 45.2 chimerism was calculated for each time point. Error bars indicate standard error of the mean (SEM) for each group, and p-values for the last time point were calculated using an unpaired two-sample t-test.
The observed association between TET2 mutations and response to treatment could be mediated directly by TET2 loss-of-function or by indirect or cell extrinsic effects. […]

[3] = Peripheral blood CBC of recipient mice in competitive murine bone marrow transplant; type: in vivo
Experimental: as §1
The observed association between TET2 mutations and response to treatment could be mediated directly by TET2 loss-of-function or by indirect or cell extrinsic effects. To test whether TET2 loss-of-function can sensitize cells to hypomethylating agents, we performed a competitive murine bone marrow transplant experiment using hematopoietic cells from Tet2-null and wildtype littermate donors. […] There was no difference in pretreatment peripheral blood counts between groups. Treatment with AZA (2.5 mg/kg M-F×2 weeks) or vehicle was begun on day 20 post-transplant and repeated starting on day 48.

[4] = tested on: MDS patients; conditions: cited from earlier work
[5] = murine bone marrow transplant experiment
[6] = 2.5 mg/kg M-F x 2 weeks, regardless of genotype, vs vehicle

For `Nc1ncn([C@@H]2O[C@H](CO)[C@@H](O)[C@H]2O)c(=O)n1` [azacitidine, 5-azacytidine], the “Non-Responders (NR/SD/PD/Died/NE) (%)” value ([1]; all patients on the treatment) was “(52) %”, the “Non-Responders (NR/SD/PD/Died/NE) N” value ([1]; all patients on the treatment) was 22 N and the “Responders (CR/PR/HI) N” value ([1]; all patients on the treatment) was 20 N. For the same compound, the “Responders (CR/PR/HI) (%)” value ([1]; all patients on the treatment, listed as Azacitidine Alone) was “(48) %”, the “Response N” value ([1]; patients with ASXL1 mutation) was 11 N and the “Response N” value ([1]; patients with ATRX mutation, listed as Aza Alone) was 0 (0) N and 0 N. The “Response N” value ([1]; patients with BCOR mutation) was 2 N, the “Response N” value ([1]; patients with CBL mutation) was 1 N and the “Response N” value ([1]; patients with DNMT3A mutation) was 3 N. For the same compound, the “Response N” value ([1]; patients with ETV6 mutation) was 2 N, the “Response N” value ([1]; patients with EZH2 mutation) was 3 N and the “Response N” value ([1]; patients with IDH1 mutation) was 1 N. For the same compound, the “Response N” value ([1]; patients with IDH2 mutation) was 2 N, the “Response N” value ([1]; patients with JAK2 mutation) was 2 N and the “Response N” value ([1]; patients with KDM3A mutation, listed as Aza Alone) was 0 (0) N and 0 N. The “Response N” value ([1]; patients with KDM6B mutation) was 1 N, the “Response N” value ([1]; patients with KRAS mutation) was 1 N and the “Response N” value ([1]; patients with MAML1 mutation, listed as Aza Alone) was 0 (0) N and 0 N. For the same compound, the “Response N” value ([1]; patients with NF1 mutation) was 2 N, the “Response N” value ([1]; patients with NOTCH1 mutation) was 2 N and the “Response N” value ([1]; patients with NOTCH2 mutation) was 2 N. For the same compound, the “Response N” value ([1]; patients with NPM1 mutation, listed as Aza Alone) was 0 (0) N and 0 N, the “Response N” value ([1]; patients with NRAS mutation) was 3 N and the “Response N” value ([1]; patients with PHF6 mutation) was 1 N. For the same compound, the “Response N” value ([1]; patients with PRPF8 mutation) was 1 N, the “Response N” value ([1]; patients with PTPN11 mutation, listed as Aza Alone) was 0 (0) N and 0 N and the “Response N” value ([1]; patients with RUNX1 mutation) was 3 N. The “Response N” value ([1]; patients with SCAF11 mutation) was 1 N, the “Response N” value ([1]; patients with SF3B1 mutation) was 3 N and the “Response N” value ([1]; patients with SRSF2 mutation) was 3 N. For the same compound, the “Response N” value ([1]; patients with TET2 mutation) was 6 N, the “Response N” value ([1]; patients with TLR1 mutation, listed as Aza Alone) was 0 (0) N and 0 N and the “Response N” value ([1]; patients with TP53 mutation) was 6 N. For the same compound, the “Response N” value ([1]; patients with U2AF1 mutation) was 4 N, the “Response N” value ([1]; patients with ZRSR2 mutation) was 1 N and the “level of representation in peripheral blood” value ([2]; Tet2-null cells, after two cycles, 2.5 mg/kg IP) was “significantly decreased level of representation”. The “clonal advantage associated with loss of Tet2 function” value [2, 5] was “preferentially decreased”, the WBC levels [3, 6] was “significant decreases” and the hematocrit [3, 6] was “significant decreases”. The “total number of mature granulocytes” value [3, 5] was “increasing”, the “MDS patients with TET2 mutations who responded to treatment” value ([4]; TET2 mutations detected by Sanger sequencing) was 11 of 13 and the response rate ([4]; overall cohort of 86 patients) was 52%.
